Reference: the NIST ThermoML archive (doi:10.1021/je801006q)

What was measured:
[1] = 101.33 kPa, Liquid
[2] = xn = mol fraction of the nth substance listed; conditions: 101 kPa, Liquid
[3] = excess molar enthalpy (molar enthalpy of mixing); xn = mol fraction of the nth substance listed; conditions: 298.15 K, 101 kPa, Liquid, Calvet calorimetry

CCCCO [butan-1-ol]
[1]
Conditions	mass density [kg/m3]	viscosity [mPa·s]
293.15 K	809.52	2.941
298.15 K	805.54	2.572
303.15 K	801.92	2.275

CC(C)CO [2-methyl-1-propanol]
[1]
Conditions	mass density [kg/m3]	viscosity [mPa·s]
293.15 K	801.28	3.943
298.15 K	797.74	3.332
303.15 K	794.32	2.884

O=C1CCCN1 [2-pyrrolidinone] + CCCCO
[2]
Conditions	mass density, 293.15 K [kg/m3]	mass density, 298.15 K [kg/m3]	mass density, 303.15 K [kg/m3]	viscosity, 293.15 K [mPa·s]	viscosity, 298.15 K [mPa·s]	viscosity, 303.15 K [mPa·s]
x1 = 0.0956	834.48	830.55	826.97	3.3	2.884	2.456
x1 = 0.1784	856.72	852.86	849.3	3.346	3.05	2.431
x1 = 0.2445	874.89	871.15	867.57	3.373	3.071	2.433
x1 = 0.3055	892	888.27	884.73	3.548	3.028	2.504
x1 = 0.3874	915.45	911.87	908.31	3.595	3.119	2.638
x1 = 0.4434	931.79	928.29	924.72	3.893	3.426	2.899
x1 = 0.4996	948.45	945.03	941.5	4.198	3.74	3.211
x1 = 0.5944	977.19	973.95	970.39	5.167	4.682	3.921
x1 = 0.6573	996.67	993.5	990.11	6.087	5.497	4.578
x1 = 0.7236	1017.57	1014.53	1011.05	7.353	6.572	5.384
x1 = 0.7983	1041.7	1038.72	1035.32	9.017	8.117	6.428
x1 = 0.8554	1060.58	1057.59	1054.15	10.75	9.56	7.469
x1 = 0.9121	1079.61	1076.71	1073.26	12.57	11.01	8.726
x1 = 0.9778	1102.22	1099.35	1095.78	14.88	12.7	10.3

[3]
Conditions	excess molar enthalpy [kcal/mol]
x1 = 0.0564	0.0234
x1 = 0.1225	0.039
x1 = 0.1877	0.0496
x1 = 0.2452	0.0563
x1 = 0.3266	0.0598
x1 = 0.3884	0.0603
x1 = 0.4453	0.0581
x1 = 0.5022	0.0556
x1 = 0.5963	0.0493
x1 = 0.6844	0.0412
x1 = 0.7452	0.0346
x1 = 0.8553	0.0227
x1 = 0.9278	0.0126

CCC(C)O (stereo not given) [butan-2-ol]
[1]
Conditions	mass density [kg/m3]	viscosity [mPa·s]
293.15 K	805.54	3.625
298.15 K	802.06	2.998
303.15 K	798.45	2.489

CC(C)(C)O [2-methylpropan-2-ol]
[1]
Conditions	mass density [kg/m3]	viscosity [mPa·s]
293.15 K	795.68	5.486
298.15 K	780.65	4.436
303.15 K	775.76	3.378

O=C1CCCN1 [2-pyrrolidinone] + CCC(C)O
[2]
Conditions	mass density, 293.15 K [kg/m3]	mass density, 298.15 K [kg/m3]	mass density, 303.15 K [kg/m3]	viscosity, 293.15 K [mPa·s]	viscosity, 298.15 K [mPa·s]	viscosity, 303.15 K [mPa·s]
x1 = 0.0995	831.58	828.13	824.55	3.409	2.829	2.3
x1 = 0.1675	849.93	846.53	842.94	3.108	2.409	1.896
x1 = 0.2444	871.14	867.8	864.23	3.034	2.443	1.707
x1 = 0.2996	886.73	883.42	879.83	2.84	2.461	1.724
x1 = 0.3945	914.18	910.92	907.3	2.982	2.561	1.834
x1 = 0.4531	931.54	928.3	924.68	3.084	2.698	2.068
x1 = 0.4967	944.64	941.43	937.81	3.237	2.856	2.348
x1 = 0.5546	962.32	959.15	955.53	3.668	3.241	2.702
x1 = 0.6402	989.06	985.96	982.36	4.673	4.125	3.405
x1 = 0.7126	1012.23	1009.19	1005.62	5.995	5.238	4.304
x1 = 0.7895	1037.38	1034.41	1030.84	7.928	6.821	5.519
x1 = 0.8438	1055.57	1052.66	1049.12	9.691	8.277	6.842
x1 = 0.9096	1078.09	1075.19	1071.64	11.74	10.1	8.162
x1 = 0.9767	1101.54	1098.73	1095.14	14.73	12.47	10.15

[3]
Conditions	excess molar enthalpy [kcal/mol]
x1 = 0.0555	0.0404
x1 = 0.1212	0.0663
x1 = 0.1842	0.0823
x1 = 0.2443	0.0929
x1 = 0.3301	0.0988
x1 = 0.3903	0.0996
x1 = 0.4444	0.0966
x1 = 0.4998	0.092
x1 = 0.5887	0.0806
x1 = 0.6799	0.0665
x1 = 0.7389	0.0565
x1 = 0.8478	0.037
x1 = 0.9309	0.0215

O=C1CCCN1 [2-pyrrolidinone]
[1]
Conditions	mass density [kg/m3]	viscosity [mPa·s]
293.15 K	1109.84	15.84
298.15 K	1106.98	13.07
303.15 K	1103.38	10.69

O=C1CCCN1 [2-pyrrolidinone] + CC(C)CO
[2]
Conditions	mass density, 293.15 K [kg/m3]	mass density, 298.15 K [kg/m3]	mass density, 303.15 K [kg/m3]	viscosity, 293.15 K [mPa·s]	viscosity, 298.15 K [mPa·s]	viscosity, 303.15 K [mPa·s]
x1 = 0.0889	824.77	821.28	817.86	3.624	3.033	2.921
x1 = 0.1776	848.94	845.47	842.04	3.381	2.802	2.596
x1 = 0.2378	865.74	862.31	858.86	2.987	2.57	2.409
x1 = 0.3009	883.75	880.34	876.86	2.87	2.483	2.167
x1 = 0.3978	912.12	908.8	905.28	2.787	2.487	1.789
x1 = 0.4456	926.49	923.19	919.66	2.833	2.483	1.75
x1 = 0.5106	946.36	943.11	939.59	3.145	2.736	1.783
x1 = 0.5844	969.46	966.29	962.76	3.686	3.262	2.118
x1 = 0.6489	990.11	987	983.49	4.428	3.966	2.645
x1 = 0.7126	1010.87	1007.83	1004.4	5.569	4.938	3.369
x1 = 0.7943	1038.14	1035.18	1031.8	7.61	6.753	4.876
x1 = 0.8564	1059.36	1056.43	1053.04	9.46	8.552	6.388
x1 = 0.9126	1078.91	1075.98	1072.53	11.57	10.27	8.021
x1 = 0.9753	1100.98	1098.14	1094.58	14.55	12.91	10.15

[3]
Conditions	excess molar enthalpy [kcal/mol]
x1 = 0.0522	0.029
x1 = 0.1222	0.0512
x1 = 0.1812	0.065
x1 = 0.2451	0.0714
x1 = 0.3296	0.0748
x1 = 0.4043	0.074
x1 = 0.4535	0.0711
x1 = 0.5022	0.0663
x1 = 0.5912	0.0582
x1 = 0.6807	0.0489
x1 = 0.7402	0.043
x1 = 0.8466	0.0286
x1 = 0.9233	0.0171

O=C1CCCN1 [2-pyrrolidinone] + CC(C)(C)O
[2]
Conditions	mass density, 293.15 K [kg/m3]	mass density, 298.15 K [kg/m3]	mass density, 303.15 K [kg/m3]	viscosity, 293.15 K [mPa·s]	viscosity, 298.15 K [mPa·s]	viscosity, 303.15 K [mPa·s]
x1 = 0.0786	806.96	802	797.13	4.778	3.771	3.586
x1 = 0.1832	836.27	831.45	826.69	3.931	3.23	2.732
x1 = 0.2489	855.32	850.57	845.86	3.399	2.698	2.053
x1 = 0.3105	873.59	868.94	864.29	2.824	2.109	1.481
x1 = 0.3875	897.03	892.52	887.93	2.167	1.547	0.786
x1 = 0.4556	918.3	913.93	909.39	1.857	1.333	0.464
x1 = 0.5003	932.55	928.28	923.8	1.665	–	–
x1 = 0.5734	956.36	952.27	947.87	1.87	1.496	–
x1 = 0.6544	983.51	979.59	975.32	2.478	2.049	1.049
x1 = 0.7236	1007.36	1003.63	999.49	3.648	3.252	2.12
x1 = 0.7995	1034.28	1030.79	1026.74	5.671	5.011	3.681
x1 = 0.8672	1059.06	1055.73	1051.83	8.035	7.463	5.849
x1 = 0.9237	1080.26	1077.13	1073.37	10.94	9.609	8.042
x1 = 0.9823	1102.87	1099.95	1096.31	14.34	12.12	9.894

[3]
Conditions	excess molar enthalpy [kcal/mol]
x1 = 0.0498	0.0345
x1 = 0.1189	0.0582
x1 = 0.1932	0.077
x1 = 0.2551	0.0902
x1 = 0.3309	0.102
x1 = 0.3946	0.106
x1 = 0.4411	0.106
x1 = 0.4943	0.103
x1 = 0.5766	0.0947
x1 = 0.6806	0.081
x1 = 0.7422	0.0687
x1 = 0.8435	0.0413
x1 = 0.9312	0.0257
